From publication PMC13198257, “An aerosolized dual-action autotaxin inhibitor-PPARγ agonist for the treatment of pulmonary fibrosis” (Cell Reports Medicine, 2026)

System: lung gene expression
Experiment: RNA sequencing of lung tissue (BLM/EL244 vs BLM)
Type: in vivo, mouse
Settings: lung tissue, BLM/EL244 vs BLM
Method: RNA quality was assessed using an Agilent TapeStation 4150 with the High Sensitivity […] ScreenTape (Agilent), according to the manufacturer’s protocols. For library preparation, the QuantSeq 3’mRNA-Seq Library Prep Kit (Lexogen) was used according to manufacturer’s instructions. Briefly, 500 ng of RNA from each sample was used for first-strand synthesis, followed by RNA template removal, and second-strand synthesis initiated by random primers. In-line barcodes were introduced at this step, and this was followed by magnetic bead-based purification. The resulting libraries were amplified for 15 cycles and re-purified, with quantity and quality assessed on a Qubit 4 Fluorometer with the Invitrogen Qubit dsDNA HS Assay and an Agilent Tapestation 4150 with the High Sensitivity D1000 assay kit, respectively. The quantified libraries were pooled equimolarly; 50ng of total library mix was used for Adapter Conversion PCR Amplification using the Universal Library Conversion Kit (App-A), Version: V1.0 (MGI Tech Co., Ltd.), according to the manufacturer’s instructions.
The quantity and quality of the purified adapter conversion PCR (AC-PCR) product were evaluated on a Qubit 4 Fluorometer with the Invitrogen Qubit dsDNA HS Assay and on an Agilent Tapestation 4150 with the High Sensitivity D1000 assay kit, respectively. This was followed by DNA denaturation, Single-Strand Circularisation, Enzymatic Digestion, Enzymatic Digestion Product Cleanup and Quality Control steps on 1 pmol of AC-PCR product, according to the Universal Library Conversion Kit (App-A) User Manual (Version: A3).
Finally, 60 fmol of ssCirDNA were used for DNB preparation and sequencing on a DNBSEQ-G400 platform at the BSRC Alexander Fleming Genomics Facility, using a G400 App-A FCS SE100 High-throughput Sequencing Set (MGI Tech Co., Ltd.), according to the manufacturer’s instructions.
Alignment of the FASTQ files was performed against the mouse genome build mm10 using a custom Bash script.[143] Read counting on the 3′ UTRs and differential expression analysis were conducted using the metaseqR2 bioconductor package.[144] Genes corresponding to the following biotypes were excluded: polymorphic_pseudogene, processed_transcript, pseudogene, IG_V_pseudogene, misc_RNA, IG_C_gene, IG_J_gene, IG_D_gene, IG_LV_gene, TR_V_gene, TR_V_pseudogene, TEC, and processed_pseudogene. Gene counts were normalized with DESEQ[145] through metaseqR2. Genes with more than 10 counts in at least 50% of the samples were kept for further processing. For differential expression analysis, the PANDORA algorithm[146] was used to estimate a meta p-value integrating the results from the DESEQ, DESEQ2,[147] edgeR,[148] limma,[149] NBPSeq,[150] and NOISeq[151] algorithms. All additional parameters were set to default values.
Pathway enrichment analysis was performed for the Gene Ontology Biological process (BP) and Molecular Function (MF) terms through GeneCodis 4.[152] The volcano plots, scatterplots, Venn diagrams, and dot plots were generated using the ggplot2 Bioconductor package.

## O=C1NC(=O)C(Cc2ccc(OCCC3CCN(C(=O)OCc4cc(Cl)cc(Cl)c4)CC3)cc2)S1 (centres unmarked) [EL244, 3,5-dichlorobenzyl 4-(2-(4-((2,4-dioxothiazolidin-5-yl)methyl)phenoxy)ethyl)piperidine-1-carboxylate]
  Evi2a nFC: 0.57
  Fam120b log2 nFC: 0.61
  Fam120b nFC: 1.53
  Fbln5 log2 nFC: -0.64
  Fbln5 nFC: 0.64
  Fcer1g log2 nFC: -0.80
  Fcer1g nFC: 0.57
  Flt1 log2 nFC: 0.58
  Flt1 nFC: 1.50
  Fmod log2 nFC: -1.79
  Fmod nFC: 0.29
  Fn1 log2 nFC: -1.69
  Fn1 nFC: 0.31
  Foxm1 log2 nFC: -1.56
  Foxm1 nFC: 0.34
  Gas7 log2 nFC: -0.82
  Gas7 nFC: 0.57
  Gatm log2 nFC: -1.79
  Gatm nFC: 0.29
  Gen1 log2 nFC: -1.63
  Gen1 nFC: 0.32
  Gins2 log2 nFC: -1.57
  Gins2 nFC: 0.34
  Gja4 log2 nFC: -0.81
  Gja4 nFC: 0.57
  Gm9844 log2 nFC: -0.79
  Gm9844 nFC: 0.58
  Gm22774 log2 nFC: -2.05
  Gm22774 nFC: 0.24
  Gm23451 log2 nFC: -1.99
  Gm23451 nFC: 0.25
  Gm49673 log2 nFC: -0.71
  Gm49673 nFC: 0.61
  Gpc1 log2 nFC: -0.80
  Gpc1 nFC: 0.57
  Gtse1 log2 nFC: -1.49
  Gtse1 nFC: 0.36
  Gxylt2 log2 nFC: -1.47
  Gxylt2 nFC: 0.36
  Gyg log2 nFC: -0.60
  Gyg nFC: 0.66
  H2-Aa log2 nFC: -0.68
  H2-Aa nFC: 0.62
  H2-Eb1 log2 nFC: -0.70
  H2-Eb1 nFC: 0.62
  H2-M2 log2 nFC: -1.86
  H2-M2 nFC: 0.27
  H2ac11 log2 nFC: -1.45
  H2ac11 nFC: 0.37
  H2ac12 log2 nFC: -1.44
  H2ac12 nFC: 0.37
  Hc log2 nFC: 0.67
  Hc nFC: 1.59
  Herpud1 log2 nFC: 0.64
  Herpud1 nFC: 1.56
  Hexb log2 nFC: -0.83
  Hexb nFC: 0.56
  Hhip log2 nFC: -0.72
  Hhip nFC: 0.61
  Hif1a log2 nFC: -0.69
  Hif1a nFC: 0.62
  Hist1h2ao log2 nFC: -1.60
  Hist1h2ao nFC: 0.33
  Hist1h2ap log2 nFC: -2.04
  Hist1h2ap nFC: 0.24
  Hmgn3 log2 nFC: -0.64
  Hmgn3 nFC: 0.64
  Ier3 log2 nFC: -0.63
  Ier3 nFC: 0.65
  Igf1 log2 nFC: -1.60
  Igf1 nFC: 0.33
  Igfbp4 log2 nFC: -0.58
  Igfbp4 nFC: 0.67
  Inhba log2 nFC: -2.22
  Inhba nFC: 0.21
  Iqgap3 log2 nFC: -2.41
  Iqgap3 nFC: 0.19
  Itgax log2 nFC: -0.80
  Itgax nFC: 0.58
  Jpt1 log2 nFC: -0.68
  Jpt1 nFC: 0.63
  Kank3 log2 nFC: 0.61
  Kank3 nFC: 1.53
  Kif2c log2 nFC: -1.67
  Kif2c nFC: 0.32
  Kif11 log2 nFC: -1.74
  Kif11 nFC: 0.30
  Kif14 log2 nFC: -1.56
  Kif14 nFC: 0.34
  Kif15 log2 nFC: -1.89
  Kif15 nFC: 0.27
  Kif20a log2 nFC: -2.52
  Kif20a nFC: 0.17
  Knstrn log2 nFC: -2.52
  Knstrn nFC: 0.17
  Lama1 log2 nFC: -2.43
  Lama1 nFC: 0.19
  Lap3 log2 nFC: -0.71
  Lap3 nFC: 0.61
  Lbh log2 nFC: -0.66
  Lbh nFC: 0.63
  Lgals3 log2 nFC: -0.80
  Lgals3 nFC: 0.57
  Lipa log2 nFC: -0.78
  Lipa nFC: 0.58
  Lmnb2 log2 nFC: -0.70
  Lmnb2 nFC: 0.62
  Lockd log2 nFC: -1.59
  Lockd nFC: 0.33
  Lox log2 nFC: -0.69
  Lox nFC: 0.62
  Loxl1 log2 nFC: -0.69
  Loxl1 nFC: 0.62
  Lpl log2 nFC: -0.68
  Lpl nFC: 0.62
  Ltbp2 log2 nFC: -1.44
  Ltbp2 nFC: 0.37
  Map2 log2 nFC: -0.67
  Map2 nFC: 0.63
  Mat2a log2 nFC: 0.59
  Mat2a nFC: 1.50
  Matk log2 nFC: -1.42
  Matk nFC: 0.37
  Mcm2 log2 nFC: -0.80
  Mcm2 nFC: 0.57
  Mcm3 log2 nFC: -0.84
  Mcm3 nFC: 0.56
  Mcm6 log2 nFC: -0.76
  Mcm6 nFC: 0.59
  Melk log2 nFC: -1.65
  Melk nFC: 0.32
  Mest log2 nFC: -2.27
  Mest nFC: 0.21
  Mex3a log2 nFC: -1.69
  Mex3a nFC: 0.31
  Mgl2 log2 nFC: -0.72
  Mgl2 nFC: 0.61
  Mif log2 nFC: -0.72
  Mif nFC: 0.61
  Mir147 log2 nFC: -1.44
  Mir147 nFC: 0.37
  Mis18bp1 log2 nFC: -1.46
  Mis18bp1 nFC: 0.36
  Mki67 log2 nFC: -1.62
  Mki67 nFC: 0.33
  Mmp2 log2 nFC: -0.81
  Mmp2 nFC: 0.57
  Mmp12 log2 nFC: -2.48
  Mmp12 nFC: 0.18
  Mmp13 log2 nFC: -1.80
  Mmp13 nFC: 0.29
  Ms4a7 log2 nFC: -1.49
  Ms4a7 nFC: 0.36
  Msr1 log2 nFC: -1.44
  Msr1 nFC: 0.37
  Mybpc2 log2 nFC: -2.17
  Mybpc2 nFC: 0.22
  Nans log2 nFC: -0.72
  Nans nFC: 0.61
  Nek6 log2 nFC: -0.68
  Nek6 nFC: 0.63
  Nipal3 log2 nFC: 0.64
  Nipal3 nFC: 1.56
  Npr2 log2 nFC: 0.59
  Npr2 nFC: 1.50
  Ntrk2 log2 nFC: -1.60
  Ntrk2 nFC: 0.33
  Nup93 log2 nFC: -0.64
  Nup93 nFC: 0.64
  Nusap1 log2 nFC: -2.02
  Nusap1 nFC: 0.25
  Nwd2 log2 nFC: -1.51
  Nwd2 nFC: 0.35
  Oaf log2 nFC: -0.81
  Oaf nFC: 0.57
  Olfml2b log2 nFC: -0.82
  Olfml2b nFC: 0.57
  Ooep log2 nFC: -1.51
  Ooep nFC: 0.35
  Otud7b log2 nFC: 0.61
  Otud7b nFC: 1.53
  P3h1 log2 nFC: -0.85
  P3h1 nFC: 0.55
  P4ha3 log2 nFC: -2.15
  P4ha3 nFC: 0.23
  Pbk log2 nFC: -2.73
  Pbk nFC: 0.15
  Pclaf log2 nFC: -2.08
  Pclaf nFC: 0.24
  Pcmtd1 log2 nFC: 0.63
  Pcmtd1 nFC: 1.54
  Pdgfc log2 nFC: -1.47
  Pdgfc nFC: 0.36
  Pdzd2 log2 nFC: 0.60
  Pdzd2 nFC: 1.52
  Phactr2 log2 nFC: 0.63
  Phactr2 nFC: 1.54
  Pianp log2 nFC: -1.75
  Pianp nFC: 0.30
  Pla1a log2 nFC: -1.42
  Pla1a nFC: 0.37
  Pld4 log2 nFC: -0.66
  Pld4 nFC: 0.63
  Plk1 log2 nFC: -1.89
  Plk1 nFC: 0.27
  Plk2 log2 nFC: -0.82
  Plk2 nFC: 0.57
  Plpp3 log2 nFC: 0.65
  Plpp3 nFC: 1.57
  Plxdc2 log2 nFC: 0.61
  Plxdc2 nFC: 1.53
  Pmepa1 log2 nFC: -0.76
  Pmepa1 nFC: 0.59
  Pole2 log2 nFC: -1.50
  Pole2 nFC: 0.35
  Pole log2 nFC: -1.58
  Pole nFC: 0.34
  Por log2 nFC: 0.66
  Por nFC: 1.58
  Ppa1 log2 nFC: -0.71
  Ppa1 nFC: 0.61
  Ppp1r9a log2 nFC: 0.61
  Ppp1r9a nFC: 1.53
  Prc1 log2 nFC: -2.31
  Prc1 nFC: 0.20
  Prcp log2 nFC: -0.69
  Prcp nFC: 0.62
  Prdx1 log2 nFC: -0.62
  Prdx1 nFC: 0.65
  Prrx2 log2 nFC: -1.75
